Data set [1] concerns HIV-1 (H9IIIB virus) replication in MT4-GFP cells. Kind of data set: Viking Assay: antiviral potency in a multiple round HIV-1 infection assay. The class given is cell-based. Conditions: Human immunodeficiency virus 1, 10% normal human serum, inhibition of reproductive ratio R0 between ~48 h and ~72 h post-infection, read-out: Viking, IC50 (10% NHS). On the procedure: Assessing Antiviral Potency in a Multiple Round HIV-1 Infection Assay.
Cells were then washed and re-suspended in either RPMI 1640 containing 10% or 50% normal human serum at 1.6×10^5 cells/mL (10% or 50% NHS conditions) or in 100% normal human serum at 2×10^5 cells/mL (100% NHS conditions).
The increase in the number of green cells over ˜24 h period gives the reproductive ratio, R0, which is typically 5-15 and has been shown experimentally to be in logarithmic phase (data not shown). Inhibition of R0 is calculated for each well, and IC50s determined by non-linear 4-parameter curve fitting.

For data set [2] the test system is unchanged. As to the kind of experiment: Antiviral Persistence assay. Conditions: for Fold shift IC50 72 h/24 h: ratio of IC50 72 h to IC50 24 h. On the procedure:
HIV-1 replication was monitored using MT4-gag-GFP clone D3 (hereafter designate MT4-GFP), which are MT-4 cells modified to harbor a GFP reporter gene, the expression of which is dependent on the HIV-1 expressed proteins tat and rev. Productive infection of an MT4-GFP cell with HIV-1 results in GFP expression approximately 24 h post-infection. MT4-GFP cells were maintained at 37° C./5% CO2/90% relative humidity in RPMI 1640 supplemented with 10% fetal bovine serum, 100 U/mL penicillin/streptomycin, and 400 μg/mL G418 to maintain the reporter gene. For 72 hour time point persistence assay (72 h plate) and 24 hour time point control assay (24 h plate), MT4-GFP cells were washed and re-suspended in RPMI 1640 containing 10% normal human serum at either 1.6×10^5 or 2.4×10^5 cells/mL (10% NHS). Compound plates were prepared by dispensing compounds dissolved in DMSO into wells of 384 well cell culture plates ([…]) using an ECHO acoustic dispenser. Each compound was tested in a 10 point serial 3-fold dilution (typical final concentrations: 4.2 μM-0.21 nM). Controls included no inhibitor (DMSO only) and a combination of three antiviral agents (efavirenz, indinavir, and an integrase strand transfer inhibitor at final concentrations of 4 μM each). Cells were added (50 μL/well) to compound plates and were incubated at 37° C./5% CO2/90% relative humidity for 24 hours. The cells were washed with 5×40 uL of RPMI 1640 supplemented with 10% NHS and 100 U/mL penicillin/streptomycin. 72 h plate was return back to 37° C. incubator for additional 48 hour incubation. 40 uL of the cells from each well of the 24 h plate or the 72 h plate (after 48 hour incubation post wash) were transferred to a poly-D-lysine coated plate. The cells were then infected with H9IIIB virus at an approximate multiplicity of infection of 0.1 in the same incubation conditions.
Infected cells were quantified at ˜24 h post-infection, by counting the number of green cells in each well using an Acumen eX3 scanner. IC50s for the compounds in Table 4 were determined by non-linear 4-parameter curve fitting.
The antiviral persistence assay is meant to assess for the persistence of antiviral activity upon removal of the nucleoside. […] The publication AIDS Research and Therapy, 2009, 6:5, highlights the value of antiviral persistence.

The target in another data set is T1, HIV-1 RT enzyme (Human immunodeficiency virus type 1 group M subtype B, UniProt P03366).
T1 construct: Full-length wild-type and 2 mutant RT proteins were expressed in Escherichia coli BL21(DE3) cells and purified; made in house; host or cells: Escherichia coli BL21(DE3)
Kind of data set: RT Polymerase Assay. The class given is biochemical. The procedure: Full-length wild-type and 2 mutant RT proteins were expressed in Escherichia coli BL21(DE3) cells and purified. Briefly, the heterodimeric nucleic acid substrate used in the HIV-1 RT polymerase reactions was generated by annealing biotinylated DNA primer to a 500 nucleotide RNA template. The HIV-1 RT enzyme (final concentration of […]) was combined with an inhibitor compound or DMSO (10% DMSO in the final reaction mixture) in assay buffer (62.5 mM Tris-HCl, pH 7.8, 1.25 mM dithiothreitol, 7.5 mM MgCl2, 100 mM KCl, 0.03% CHAPS, 0.125 mM EGTA). This mixture was pre-incubated for 30 minutes at room temperature in microtiter plates. The polymerization reaction was initiated by the addition of template/primer substrate (final concentration: 16.6 nM) and dNTPs (final concentration: 2 μM dCTP, dGTP, dATP, and 66.6 nM Ru-dUTP). After 90 min of incubation at 37° C., reactions were quenched by the addition of EDTA (25 mM). The resulting mixture was incubated for an additional 5 minutes at room temperature followed by transferring the solution (50 μL) to blocked avidin plate from Meso Scale Discovery (MSD). The mixtures were incubated at room temperature for 60 min prior to the quantification of the reaction product via an ECL 6000 imager instrument.

Setting [3] is: Human immunodeficiency virus 1, 24 h, read-out: IC50 24 h (nM).
Where [4] appears, read: Human immunodeficiency virus 1, read-out: IC50 72 h (nM).

As for `Cc1cn([C@H]2C[C@H](N=[N+]=[N-])[C@@H](CO)O2)c(=O)[nH]c1=O` [AZT, 3′-azido-3′-deoxythymidine, reference compound], the IC50 in data set [1] came to 37 nM; in data set [2] (setting [3]) it was 37 nM; in data set [2] (setting [4]), 4710 nM. Moreover, in data set [2], the “Fold shift IC50 72 h/24 h” value amounted to 127.
Consider `C#C[C@]1(CO)O[C@@H](n2cc(C)c3c(N)ncnc32)C[C@@H]1O` [Example 3, (2R,3S,5R)-5-(4-amino-5-methyl-7H-pyrrolo[2,3-d]pyrimidin-7-yl)-2-ethynyl-2-(hydroxymethyl)tetrahydrofuran-3-ol], for which the IC50 in data set [1] was determined as 485 nM; in data set [2] (setting [3]) it was 470 nM; in data set [2] (setting [4]) it was 2500 nM. In data set [2], the “Fold shift IC50 72 h/24 h” value is 5.3.
Consider `C#C[C@]1(CO)O[C@@H](n2cc(Br)c3c(N)ncnc32)C[C@@H]1O` [Example 5, (2R,3S,5R)-5-(4-amino-5-bromo-7H-pyrrolo[2,3-d]pyrimidin-7-yl)-2-ethynyl-2-(hydroxymethyl)tetrahydrofuran-3-ol], for which the IC50 in data set [1] was 209 nM; in data set [2] (setting [3]) it was 22000 nM; in data set [2] (setting [4]), above 42000 nM. Moreover, the “Fold shift IC50 72 h/24 h” value in data set [2] is recorded as above 1.9.
On the same counts, the results for `C#C[C@]1(CO)O[C@@H](n2cc(Cl)c3c(N)ncnc32)C[C@@H]1O` [Example 6, (2R,3S,5R)-5-(4-amino-5-chloro-7H-pyrrolo[2,3-d]pyrimidin-7-yl)-2-ethynyl-2-(hydroxymethyl)tetrahydrofuran-3-ol] are 128 nM, 99 nM, 970 nM and 9.8.
As for `C#C[C@]1(CO)O[C@@H](n2cc(I)c3c(N)ncnc32)C[C@@H]1O` [Example 7, (2R,3S,5R)-5-(4-amino-5-iodo-7H-pyrrolo[2,3-d]pyrimidin-7-yl)-2-ethynyl-2-(hydroxymethyl)tetrahydrofuran-3-ol], the IC50 was found to be 1030 nM in data set [1], 17000 nM in data set [2] (setting [3]) and 17000 nM in data set [2] (setting [4]). For the same compound, the “Fold shift IC50 72 h/24 h” value in data set [2] came out at 1.
`N#C[C@]1(CO)O[C@@H](n2ccc3c(N)ncnc32)C[C@@H]1O` [Example 10, (2R,3S,5R)-5-(4-amino-7H-pyrrolo[2,3-d]pyrimidin-7-yl)-3-hydroxy-2-(hydroxymethyl)tetrahydrofuran-2-carbonitrile]: the IC50 turned out to be 128 nM in data set [1], 170 nM in data set [2] (setting [3]) and 1800 nM in data set [2] (setting [4]). Besides, in data set [2], the “Fold shift IC50 72 h/24 h” value came to 10.5.
As to `C#C[C@]1(COP(=O)(O)OP(=O)(O)OP(=O)(O)O)O[C@@H](n2ccc3c(N)ncnc32)C[C@@H]1O` [Example 13, ammonium ((2R,3S,5R)-5-(4-amino-7H-pyrrolo[2,3-d]pyrimidin-7-yl)-2-ethynyl-3-hydroxytetrahydrofuran-2-yl)methyl triphosphate], the half-inhibitory concentration (IC50) on HIV-1 RT enzyme is 933 nM.
The same measure, in the same setting: for `C#C[C@]1(COP(=O)(O)OP(=O)(O)OP(=O)(O)O)O[C@@H](n2cc(F)c3c(N)ncnc32)C[C@@H]1O` [Example 14, ammonium ((2R,3S,5R)-5-(4-amino-5-fluoro-7H-pyrrolo[2,3-d]pyrimidin-7-yl)-2-ethynyl-3-hydroxytetrahydrofuran-2-yl)methyl triphosphate] the value was 210 nM.
Same read-out and setting: under `C#C[C@]1(COP(=O)(O)OP(=O)(O)OP(=O)(O)O)O[C@@H](n2cc(C)c3c(N)ncnc32)C[C@@H]1O` [Example 15, ammonium (2R,3S,5R)-5-(4-amino-5-methyl-7H-pyrrolo[2,3-d]pyrimidin-7-yl)-2-ethynyl-3-hydroxytetrahydrofuran-2-yl)methyl triphosphate] stands 6240 nM; under `C#C[C@]1(COP(=O)(O)OP(=O)(O)OP(=O)(O)O)O[C@@H](n2ccc3c(N)nc(Cl)nc32)C[C@@H]1O` [Example 16, bis-triethylammonium ((2R,3S,5R)-5-(4-amino-2-chloro-7H-pyrrolo[2,3-d]pyrimidin-7-yl)-2-ethynyl-3-hydroxytetrahydrofuran-2-yl)methyl triphosphate], 1820 nM.
At HIV-1 RT enzyme, `C#C[C@]1(COP(=O)(O)OP(=O)(O)OP(=O)(O)O)O[C@@H](n2cc(Cl)c3c(N)ncnc32)C[C@@H]1O` [Example 17, ammonium ((2R,3S,5R)-5-(4-amino-5-chloro-7H-pyrrolo[2,3-d]pyrimidin-7-yl)-2-ethynyl-3-hydroxytetrahydrofuran-2-yl)methyl triphosphate] gave an IC50 of 842 nM.
`N#C[C@]1(COP(=O)(O)OP(=O)(O)OP(=O)(O)O)O[C@@H](n2ccc3c(N)ncnc32)C[C@@H]1O` [Example 18, bis-triethylammonium ((2R,3S,5R)-5-(4-amino-7H-pyrrolo[2,3-d]pyrimidin-7-yl)-2-cyano-3-hydroxytetrahydrofuran-2-yl)methyl triphosphate] displayed a half-maximal inhibitory concentration (IC50) against HIV-1 RT enzyme of 4150 nM.
Still for that read-out and setting: under `C#C[C@]1(COP(=O)(O)OP(=O)(O)OP(=O)(O)O)O[C@@H](c2ccc3c(N)ncnn23)C[C@@H]1O` [Example 19, ammonium ((2R,3S,5R)-5-(4-aminopyrrolo[2,1-f][1,2,4]triazin-7-yl)-2-ethynyl-3-hydroxytetrahydrofuran-2-yl)methyl triphosphate] stands 3540 nM.
Same read-out and setting: under `C#C[C@]1(COP(=O)(O)OP(=O)(O)OP(=O)(O)O)O[C@@H](c2cnn3c(N)ncnc23)C[C@@H]1O` [Example 20, ammonium ((2R,3S,5R)-5-(4-aminopyrazolo[1,5-a][1,3,5]triazin-8-yl)-2-ethynyl-3-hydroxytetrahydrofuran-2-yl)methyl triphosphate] stands 1290 nM; under `C#C[C@]1(COP(=O)(O)OP(=O)(O)OP(=O)(O)O)O[C@@H](c2cnc3c(N)ncnn23)C[C@@H]1O` [Example 21, ammonium ((2R,3S,5R)-5-(4-aminoimidazo[2,1-f][1,2,4]triazin-7-yl)-2-ethynyl-3-hydroxytetrahydrofuran-2-yl)methyl triphosphate], 905 nM.

The IC50 is the point on the concentration scale where inhibition reaches its midpoint.

(Values after patent US20180002366A1, “4'-SUBSTITUTED NUCLEOSIDE REVERSE TRANSCRIPTASE INHIBITORS” (MERCK SHARP & DOHME CORP., priority 2014, published 2018).)
